Experimental data as given in US20260200849A1, “CATIONIC LIPIDS AND PREPARATION METHOD THEREOF” (RiboX Therapeutics HK Limited, priority 2024, published 2026).
Several values for one entry are separate records, joined by “and”; a condition that tells them apart may be missing. Identical values can stand only once.

Assays:
C57BL/6J mice [1] = assay: In vivo expression by IM, luciferase RNA-LNPs, whole-body/injection site muscle/organ luminescence; settings: IM 1.0 mg/kg, 24 h post injection, male C57BL/6J mice N=3, Formulation 001, RNA 331
Protocol: 6-8 week old, male C57BL/6J mice (N=3) were injected with 1.0 mg*kg−1 of RNA-LNPs encoding for firefly-luciferase by intramuscular injection. At 24-hours post injection, animals were intraperitoneally injected with 15 mg/ml of Luciferin substrate and whole-body/injection site muscle/liver/spleen/kidney/heart/lung luminescence were determined by a bioluminescent in vivo imaging system (IVIS).

C57BL/6J mice [2] = assay: In vivo expression by ID, whole-body/injection site skin/lymph node luminescence; settings: intradermal 0.15 mg/kg, 72 h post injection, female C57BL/6J mice N=3, Formulation 001, RNA 331
Protocol: 7-8 week old, female C57BL/6J mice (N=3) were injected with 0.15 mg*kg−1 of RNA-LNPs encoding for firefly-luciferase by intradermal injection. At 72-hours post injection, animals were intraperitoneally injected with 15 mg/mi of Luciferin substrate and whole-body/injection site skin/lymph node luminescence were determined by a bioluminescent in vivo imaging system (IVIS).

injection site skin = assay: In vivo tolerability after intradermal injection: H&E staining of injection site skin; design: species or system C57BL/6J mice; key to Infiltration, mononuclear cells, dermis/subcutaneous, focal, Grade / Edema, subcutaneous, focal, Grade / Erosion, focal, Grade / Skin, Grade: 1==minimal; 2=mild; 3=moderate; 4=marked; 5=severe; N=Normal; NA=Not applicable; —=No data; settings: intradermal 0.15 mg/kg, 72 h, Formulation 001, RNA 331; for Edema, subcutaneous, focal, Grade / Erosion, focal, Grade / Infiltration, mononuclear cells, dermis/subcutaneous, focal, Grade: per animal; for Total score: sum of lesion grades of the group (N=3)
Protocol: 7-8 week old, female C57BL/6J mice (N=3) were injected with 0.15 mg*kg−1 of RNA-LNIPs encoding for firefly-luciferase by intradermal injection. At 72-hours post injection, injection site skin from each animal was collected in 10% formalin, for H&E staining. PBS group (N=2) as control. (Note: 1==minimal, 2=mild, 3=moderate, 4=marked, 5=severe; N=Normal; NA=Not applicable; —=No data)

[3] = RNA encapsulation efficacy (EE %) by Quant-IT Ribogreen kit; assay type: physicochemical; settings: LNP
Protocol: (§1) The LNP size and polydispersity index (PDI), determined by dynamic light scattering (DLS), and zeta potential were measured by a Zetasizer machine (Malvern). RNA concentration and encapsulation efficacy (EE %) were analyzed by the Quant-IT Ribogreen kit by calculating the percentage encapsulation at 100%—(RNA-LNPs/RNA-LNPs with Triton X-100).

Hep G2 cells [4] = assay: In vitro toxicity: Hep G2 cell viability by CellTiter-Glo; assay type: cell-based; settings: 72 hours post transfection, cell only = 100%
Protocol: 2E5 Hep G2 cells were transfected with 1 μg/mL RNA-LNPs. At 72 hours post transfection, cell viability (2-well repeat) was determined with the CellTiter-Glo® reagent kit, according to the kit protocol, measured by a luminometer. Cell only as control (100%).
The cell viability was calculated according to the following formula: […]

MCP-1 = assay: In vivo tolerability by IM: serum MCP-1 by Luminex; settings: IM 1.0 mg/kg, male C57BL/6J mice N=3, Formulation 001, RNA 331
Protocol: (§2) 6-8 week old, male C57BL/6J mice (N=3) were injected with 1.0 mg*kg−1 of RNA-LNPs encoding for firefly-luciferase by intramuscular injection. At 2- and 24-hours post injection, about 40 μL blood was harvested and immediately added to the procoagulant containing tube. Stand for 30 min at room temperature and then centrifuged at 2500 g×10 min to obtain serum. About 15 μL serum samples were aliquoted for cytokine (MCP-1 and IL-6) detection by Luminex (ProcartaPlex Mouse 2-plex, Thermo). PBS group as negative control.

Hep G2 cells [5] = assay: In vitro expression: luciferase activity in Hep G2 cells transfected with RNA-LNPs; assay type: cell-based; settings: 100 ng/mL RNA-LNPs, 72 hours post transfection
Protocol: 2E5 Hep G2 cells were transfected with 100 ng/mL of RNA-LNPs encoding for firefly-luciferase. At 72 hours post transfection, the cells were washed and lysed. The luciferase expression (2-well repeat) was determined in the cell lysates with the luciferase assay reagent kit (Promega), according to the kit protocol, luciferase activity was measured by a luminometer.

[6] = LNP size and polydispersity index (PDI) by dynamic light scattering (Zetasizer); assay type: physicochemical; settings: for Size (nm): Formulation No. 010 (Ionizable lipid:DSPC:cholesterol:DSPE-PEG2000 = 38:30:30:2, N/P 6), RNA No. 331
Protocol: as §1

IL-6 = assay: In vivo tolerability by IM: serum IL-6 by Luminex; settings: IM 1.0 mg/kg, male C57BL/6J mice N=3, Formulation 001, RNA 331
Protocol: as §2

Balb/c mice = assay: In vivo expression by IV, 0.05 mg/kg luciferase RNA-LNPs, IVIS luminescence; settings: Formulation No. 010, RNA No. 331, female Balb/c mice, 0.05 mg*kg−1 intravenous; for Whole body at 24 h (p/s) (Mean): 24 hours post injection; for Whole body at 72 h (p/s) (Mean): 72 hours post injection
Procedure, shortened: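 IVIS bioluminescence was read after IP luciferin (15 mg/ml): whole-body at 24 and 72 h, or whole-body/liver/spleen at 24 h. Dosing was a single IV injection of 0.05 mg*kg−1 RNA-LNPs encoding firefly luciferase into 7-8 week old female Balb/c mice, N=3.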

[7] = Formulation No. 001, RNA No. 331
[8] = Formulation No. 010, RNA No. 331
[9] = 1 μg/mL RNA-LNPs, Formulation 001, RNA 331
[10] = Formulation No. 010, RNA No. 331, 1 μg/mL RNA-LNPs
[11] = Formulation No. 010, RNA No. 331 (firefly-luciferase)

SMILES: CCCCCCCC/C=C\CCCCCCCC(=O)NC(COC(=O)NCCN1CCCCCC1)C(=O)OCCCCCCCCOC(=O)C(CCCCCC)CCCCCCCC (stereo not drawn) [Lipid 701]
- Heart (p/s) (C57BL/6J mice [1]): 9.37E+05 p/s
- Injection site muscle (p/s) (C57BL/6J mice [1]): 5.32E+08 p/s
- Kidney (p/s) (C57BL/6J mice [1]): 2.70E+07 p/s
- Liver (p/s) (C57BL/6J mice [1]): 2.35E+08 p/s
- Lung (p/s) (C57BL/6J mice [1]): 2.10E+06 p/s
- Spleen (p/s) (C57BL/6J mice [1]): 1.24E+08 p/s
- Whole body (p/s) (C57BL/6J mice [1]): 8.27E+08 p/s
- Injection site Skin (p/s) (C57BL/6J mice [2]): 3.34E+07 p/s
- Lymph node (p/s) (C57BL/6J mice [2]): 6.94E+06 p/s
- Whole body (p/s) (C57BL/6J mice [2]): 6.46E+07 p/s
- Edema, subcutaneous, focal, Grade (injection site skin): — and 1 (2×)
- Erosion, focal, Grade (injection site skin): —
- Infiltration, mononuclear cells, dermis/subcutaneous, focal, Grade (injection site skin): 1
- Total score (injection site skin): 5
- EE (%) [3, 7]: 92.16%
- EE (%) [3, 8]: 95.09%
- In vitro cell viability (%) (Mean) (Hep G2 cells [4]; [9]): 74.24%
- In vitro cell viability (%) (Mean) (Hep G2 cells [4]; [10]): 96.43%
- MCP-1 at 2 h (MCP-1): 628 pg/mL
- MCP-1 at 24 h (MCP-1): 4620 pg/mL
- In vitro Expression (Mean) (Hep G2 cells [5]; Formulation 001, RNA 331): 6.00E+05
- In vitro Expression (Mean) (Hep G2 cells [5]; [11]): 3.96E+05
- PDI [6, 7]: 0.10
- Size [6, 7]: 76.05 nm
- Size (nm) [6]: 60.60 nm
- PDI [6, 8]: 0.07
- IL-6 at 2 h (IL-6): 21.2 pg/mL
- IL-6 at 24 h (IL-6): 108 pg/mL
- Whole body at 24 h (p/s) (Mean) (Balb/c mice): 4.00E+08 p/s
- Whole body at 72 h (p/s) (Mean) (Balb/c mice): 1.08E+08 p/s

SMILES: CCCCC/C=C\C/C=C\CCCCCCCC(=O)NC(COC(=O)NCCN1CCCCC1)C(=O)OCCCCCC(=O)OCC(CCCCCCCC)CCCCCCCCCC (stereo not drawn) [Lipid 728]
- Heart (p/s) (C57BL/6J mice [1]): 4.42E+05 p/s
- Injection site muscle (p/s) (C57BL/6J mice [1]): 5.61E+08 p/s
- Kidney (p/s) (C57BL/6J mice [1]): 1.42E+07 p/s
- Liver (p/s) (C57BL/6J mice [1]): 7.48E+07 p/s
- Lung (p/s) (C57BL/6J mice [1]): 1.56E+06 p/s
- Spleen (p/s) (C57BL/6J mice [1]): 3.40E+07 p/s
- Whole body (p/s) (C57BL/6J mice [1]): 6.11E+08 p/s
- Injection site Skin (p/s) (C57BL/6J mice [2]): 4.04E+06 p/s
- Lymph node (p/s) (C57BL/6J mice [2]): 1.03E+06 p/s
- Whole body (p/s) (C57BL/6J mice [2]): 3.58E+07 p/s
- Edema, subcutaneous, focal, Grade (injection site skin): — (2×) and 1
- Erosion, focal, Grade (injection site skin): —
- Infiltration, mononuclear cells, dermis/subcutaneous, focal, Grade (injection site skin): 1
- Total score (injection site skin): 4
- EE (%) [3, 7]: 96.53%
- EE (%) [3, 8]: 96.83%
- In vitro cell viability (%) (Mean) (Hep G2 cells [4]; [9]): 71.13%
- In vitro cell viability (%) (Mean) (Hep G2 cells [4]; [10]): 90.20%
- MCP-1 at 2 h (MCP-1): 421 pg/mL
- MCP-1 at 24 h (MCP-1): 3740 pg/mL
- In vitro Expression (Mean) (Hep G2 cells [5]; Formulation 001, RNA 331): 3.37E+05
- In vitro Expression (Mean) (Hep G2 cells [5]; [11]): 4.71E+05
- PDI [6, 7]: 0.05
- Size [6, 7]: 65.33 nm
- Size (nm) [6]: 56.88 nm
- PDI [6, 8]: 0.09
- IL-6 at 2 h (IL-6): 24.3 pg/mL
- IL-6 at 24 h (IL-6): 143 pg/mL
- Whole body at 24 h (p/s) (Mean) (Balb/c mice): 1.86E+08 p/s
- Whole body at 72 h (p/s) (Mean) (Balb/c mice): 5.78E+07 p/s
